Measurements reported in patent US20230348376A1 (TEIJIN PHARMA LIMITED, priority 2020, published 2023).
Read-outs that look alike come from different tables or passages of the source.

Columns and labels:
[1] = Evaluation of brain penetration in mice (blood and brain concentration at brain Cmax); assay type: in vivo, mouse; settings: 1 mg/kg single oral dose, C57BL/6J mice; for Concentration in blood (mean ± SD) at brain Cmax / Concentration in brain (mean ± SD) at brain Cmax: n=3; for Kp: male, C57BL/6J, mouse, brain/plasma, po, 1 mg/kg, read-out: Concentration in brain/in blood ratio at brain Cmax
Protocol: The administration solution was administered orally to C57BL/6J mice (8 weeks old, male, n=3) at a single dose (1 mg/kg). Mice were euthanized at 6 points of 0.25, 0.5, 1, 2, 4, and 8 hours after administration, and plasma and brain sampling were performed. After preparing a homogenate from the collected brain using Tissue Lyser II (QIAGEN #85300), acetonitrile was added to the homogenate and the homogenate was centrifuged (12000 rpm, 5 minutes) to extract the administered test compound contained in the brain. Similarly, the plasma was subjected to addition of acetonitrile and centrifugal separation to extract the administered test compound contained in the plasma. Each extracted sample was subjected to measurement of the concentration of administered test compound using LC/MS/MS (SHIMADZU UFLC/MS/MS (8050)).
Test 2 [0.2 mg/kg Administration Study] […] The administration solution was administered orally to C57BL/6J mice (8 weeks old, male, n=3) at a single dose (0.2 mg/kg). Mice were euthanized at 6 points of 0.25, 0.5, 1, 2, 4, and 8 hours after administration, and plasma and brain sampling were performed. After preparing a homogenate from the collected brain using Tissue Lyser II (QIAGEN #85300), acetonitrile was added to the homogenate and the homogenate was centrifuged (12000 rpm, 5 minutes) to extract the administered compound contained in the brain. Similarly, the plasma was subjected to addition of acetonitrile and centrifugal separation to extract the administered test compound contained in the plasma. Each extracted sample was subjected to measurement of the concentration of administered test compound using LC/MS/MS (SHIMADZU UFLC/MS/MS (8050)).

human VDR = molecular target: T1, human VDR (Homo sapiens, UniProt P11473); test: Evaluation of VDR transcription activity in human osteoblasts (HOS cells), luciferase reporter; settings: HOS cells transfected with human VDR, human RXRα and DR3 luciferase reporter, 21 hours
T1 sequence (P11473 1-427): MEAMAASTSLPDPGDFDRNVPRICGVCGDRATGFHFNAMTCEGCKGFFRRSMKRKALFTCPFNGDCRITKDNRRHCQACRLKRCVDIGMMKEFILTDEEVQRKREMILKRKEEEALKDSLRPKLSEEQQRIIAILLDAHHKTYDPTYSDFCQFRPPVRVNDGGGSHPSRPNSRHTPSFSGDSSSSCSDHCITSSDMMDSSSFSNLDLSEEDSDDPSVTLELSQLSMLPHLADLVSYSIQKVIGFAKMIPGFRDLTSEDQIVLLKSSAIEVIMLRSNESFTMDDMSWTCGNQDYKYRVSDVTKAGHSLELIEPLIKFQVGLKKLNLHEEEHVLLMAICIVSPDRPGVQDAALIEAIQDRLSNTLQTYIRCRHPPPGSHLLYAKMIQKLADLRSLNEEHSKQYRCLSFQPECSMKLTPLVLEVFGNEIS
T1 sequence (P19793 1-462 partner): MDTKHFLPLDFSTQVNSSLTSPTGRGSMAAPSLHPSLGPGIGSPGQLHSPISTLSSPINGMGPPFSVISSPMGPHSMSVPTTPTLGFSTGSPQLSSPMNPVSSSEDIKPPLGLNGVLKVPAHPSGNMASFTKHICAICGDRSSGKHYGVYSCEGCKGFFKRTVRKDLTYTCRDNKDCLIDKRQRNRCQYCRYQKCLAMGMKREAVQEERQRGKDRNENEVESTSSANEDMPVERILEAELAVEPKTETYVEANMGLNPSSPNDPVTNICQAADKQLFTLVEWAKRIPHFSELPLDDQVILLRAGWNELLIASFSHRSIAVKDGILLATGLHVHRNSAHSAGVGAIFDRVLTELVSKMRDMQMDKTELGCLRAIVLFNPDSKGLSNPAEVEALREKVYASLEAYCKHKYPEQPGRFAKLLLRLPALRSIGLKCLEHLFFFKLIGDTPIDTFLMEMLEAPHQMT

[2] = system: rat oligodendrocyte progenitor cells; test: Promotive activity of rat oligodendrocyte progenitor cell differentiation-2 (immunostaining of MBP); assay type: cell-based; settings: vitamin D derivative 2 μM, T3 30 nM, 4 days
Protocol: The promotive activity of oligodendrocyte progenitor cell (OPC) differentiation of the vitamin D derivatives was evaluated by immunostaining of MBP.
Subsequently, oligodendrocyte progenitor cell separation medium was added to the flask, and the mixture was similarly shaken for about 22 hours (37° C., 200 rpm), and the supernatant was collected to prepare oligodendrocyte progenitor cells.

[3] = Activity (EC50, VDR transcription activity)

Row | SMILES | Concentration in blood (mean ± SD) at brain Cmax [1] | Concentration in brain (mean ± SD) at brain Cmax [1] | Kp [1] | EC50 (human VDR; [3]) | other results
1 | C[C@H](CN1CCC(O)(C(F)(F)F)C1)[C@H]1CC[C@H]2/C(=C/C=C3C[C@@H](O)C[C@H](O)C3)CCC[C@]12C (single isomer, unassigned) [Compound B045a] | 530 ± 97 nM | 185 ± 116 pmol/g | 0.35 | < 1 nM | –
2 | C[C@H](CN1CCC(O)(C(F)(F)F)C1)[C@H]1CC[C@H]2/C(=C/C=C3C[C@@H](O)C[C@H](O)C3)CCC[C@]12C (single isomer, unassigned) [Compound B045b] | 444 ± 113 nM | 109 ± 22 pmol/g | – | – | Concentration in brain/in blood ratio at brain Cmax [1]: 0.25; EC50 (human VDR; read-out: Activity (EC50, VDR transcription activity)): < 1 nM
3 | C=C1/C(=C\C=C2/CCC[C@]3(C)[C@@H]([C@@H](C)CN4CC[C@H](F)C4)CC[C@@H]23)C[C@@H](O)C[C@@H]1O [Compound B018, (1R,3S,Z)-5-(2-((1R,3aS,7aR,E)-1-((R)-1-((S)-3-fluoropyrrolidin-1-yl)propan-2-yl)-7a-methyloctahydro-4H-inden-4-ylidene)ethylidene)-4-methylenecyclohexane-1,3-diol] | 841 ± 197 nM | 533 ± 197 pmol/g | 0.63 | 10 to 100 nM | –
4 | C[C@H](CN1CCC(O)(C(F)(F)F)CC1)[C@H]1CC[C@H]2/C(=C/C=C3C[C@@H](O)C[C@H](O)C3)CCC[C@]12C [Compound C002, (1R,3R)-5-(2-((1R,3aS,7aR,E)-1-((S)-1-(4-hydroxy-4-(trifluoromethyl)piperidin-1-yl)propan-2-yl)-7a-methyloctahydro-4H-inden-4-ylidene)ethylidene)cyclohexane-1,3-diol] | 402 ± 38 nM | 156 ± 14 pmol/g | 0.39 | 10 to 100 nM | –
5 | C=C1/C(=C\C=C2/CCC[C@]3(C)[C@@H]([C@@H](C)CN4CCC(O)(C(F)(F)F)CC4)CC[C@@H]23)C[C@@H](O)[C@H](C)[C@@H]1O [Compound C006] | 510 ± 55 nM | 239 ± 23 pmol/g | 0.47 | < 1 nM | –
6 | C=C1[C@H](O)CC(=C/C=C2\CCC[C@]3(C)[C@@H]([C@@H](C)CN4CCC(C(F)F)CC4)CC[C@@H]23)C[C@H]1O [Compound C019] | 335 ± 85 nM | 614 ± 153 pmol/g | 1.83 | 1 to 10 nM | –
7 | C[C@H](CN1CCC[C@](C)(O)C1)[C@H]1CC[C@H]2/C(=C/C=C3C[C@@H](O)C[C@H](O)C3)CCC[C@]12C [Compound C039, (1R,3R)-5-(2-((1R,3aS,7aR,E)-1-((S)-1-((S)-3-hydroxy-3-methylpiperidin-1-yl)propan-2-yl)-7a-methyloctahydro-4H-inden-4-ylidene)ethylidene)cyclohexane-1,3-diol] | 132 ± 15 nM | 101 ± 8 pmol/g | 0.77 | 1 to 10 nM | –
8 | C=C1[C@H](O)CC(=C/C=C2\CCC[C@]3(C)[C@@H]([C@H](C)CN4CCC(CC(F)F)CC4)CC[C@@H]23)C[C@H]1O [Compound C059, (1R,3R)-5-(2-((1R,3aS,7aR,E)-1-((S)-1-(4-(2,2-difluoroethyl)piperidin-1-yl)propan-2-yl)-7a-methyloctahydro-4H-inden-4-ylidene)ethylidene)-2-methylenecyclohexane-1,3-diol] | 167 ± 29 nM | 241 ± 21 pmol/g | 1.44 | 10 to 100 nM | –
9 | C=C1/C(=C\C=C2/CCC[C@]3(C)[C@@H]([C@H](C)CN4CCCC[C@@H]4C)CC[C@@H]23)C[C@@H](O)C[C@@H]1O [Compound F001, (1R,3S,Z)-5-(2-((1R,3aS,7aR,E)-7a-methyl-1-((S)-1-((S)-2-methylpiperidin-1-yl)propan-2-yl)octahydro-4H-inden-4-ylidene)ethylidene)-4-methylenecyclohexane-1,3-diol] | – | – | – | – | Mean (number of MBP-positive cells/number of Hoechst33342-positive cells) ([2]; Test 7): 0.29
10 | C=C1/C(=C\C=C2/CCC[C@]3(C)[C@@H]([C@H](C)CN4CCCC[C@H]4C)CC[C@@H]23)C[C@@H](O)C[C@@H]1O [Compound F002, (1R,3S,Z)-5-(2-((1R,3aS,7aR,E)-7a-methyl-1-((S)-1-((R)-2-methylpiperidin-1-yl)propan-2-yl)octahydro-4H-inden-4-ylidene)ethylidene)-4-methylenecyclohexane-1,3-diol] | – | – | – | – | Mean (number of MBP-positive cells/number of Hoechst33342-positive cells) ([2]; Test 7): 0.31
11 | C=C1/C(=C\C=C2/CCC[C@]3(C)[C@@H]([C@H](C)CN4CCCCC4(C)C)CC[C@@H]23)C[C@@H](O)C[C@@H]1O [Compound F003, (1R,3S,Z)-5-(2-((1R,3aS,7aR,E)-1-((S)-1-(2,2-dimethylpiperidin-1-yl)propan-2-yl)-7a-methyloctahydro-4H-inden-4-ylidene)ethylidene)-4-methylenecyclohexane-1,3-diol] | – | – | – | – | Mean (number of MBP-positive cells/number of Hoechst33342-positive cells) ([2]; Test 7): 0.32
12 | C=C1/C(=C\C=C2/CCC[C@]3(C)[C@@H]([C@H](C)CN4CCOC[C@@H]4C)CC[C@@H]23)C[C@@H](O)C[C@@H]1O [Compound F004, (1R,3S,Z)-5-(2-((1R,3aS,7aR,E)-7a-methyl-1-((S)-1-((S)-3-methylmorpholino)propan-2-yl)octahydro-4H-inden-4-ylidene)ethylidene)-4-methylenecyclohexane-1,3-diol] | – | – | – | – | Mean (number of MBP-positive cells/number of Hoechst33342-positive cells) ([2]; Test 3): 0.37
13 | C=C1/C(=C\C=C2/CCC[C@]3(C)[C@@H]([C@H](C)CN4CCOC[C@H]4C)CC[C@@H]23)C[C@@H](O)C[C@@H]1O [Compound F005, (1R,3S,Z)-5-(2-((1R,3aS,7aR,E)-7a-methyl-1-((S)-1-((R)-3-methylmorpholino)propan-2-yl)octahydro-4H-inden-4-ylidene)ethylidene)-4-methylenecyclohexane-1,3-diol] | – | – | – | – | Mean (number of MBP-positive cells/number of Hoechst33342-positive cells) ([2]; Test 3): 0.40
14 | C=C1/C(=C\C=C2/CCC[C@]3(C)[C@@H]([C@H](C)CN4CCOCC4(C)C)CC[C@@H]23)C[C@@H](O)C[C@@H]1O [Compound F006, (1R,3S,Z)-5-(2-((1R,3aS,7aR,E)-1-((S)-1-(3,3-dimethylmorpholino)propan-2-yl)-7a-methyloctahydro-4H-inden-4-ylidene)ethylidene)-4-methylenecyclohexane-1,3-diol] | – | – | – | – | Mean (number of MBP-positive cells/number of Hoechst33342-positive cells) ([2]; Test 4): 0.44
15 | C=C1/C(=C\C=C2/CCC[C@]3(C)[C@@H]([C@H](C)CN4CCOC[C@@H]4C4CC4)CC[C@@H]23)C[C@@H](O)C[C@@H]1O [Compound F008, (1R,3 S,Z)-5-(2-((1R,3aS,7aR,E)-1-((S)-1-((S)-3-cyclopropylmorpholino)propan-2-yl)-7a-methyloctahydro-4H-inden-4-ylidene)ethylidene)-4-methylenecyclohexane-1,3-diol] | – | – | – | – | Mean (number of MBP-positive cells/number of Hoechst33342-positive cells) ([2]; Test 5): 0.45
